≈ marks a conversion by molar mass, not a printed value.
What was measured:
Huh-7 [1] = assay: Antiproliferative activity against human Huh-7 cells assessed as inhibition of cell proliferation incubated for 72 hrs by MTT assay; type: functional, cell-based; details: Huh-7, 72 h
[2] = Aqueous solubility of the compound […] measured after 72 hrs in shaking by HPLC analysis; type: physicochemical
Huh-7 [3] = assay: In vivo antitumor activity against human Huh-7 cells subcutaneously injected into BALB/C nude mouse assessed as tumor growth inhibition at 10 mg/kg, ip administered once daily measured after 14 days; type: functional; details: Huh-7, 336 h, time 14 day, read-out: TGI
Huh-7 [4] = assay: Induction of cell cycle arrest in human Huh-7 cells assessed as accumulation of cells at G1 phase 80 nM measured after 24 hrs by flow cytometric assay (reference value: 63.01%); type: functional
Huh-7 [5] = assay: Induction of cell cycle arrest in human Huh-7 cells assessed as accumulation of cells at G2 phase 80 nM measured after 24 hrs by flow cytometric assay (reference value: 13.66%); type: functional
Huh-7 [6] = assay: Induction of cell cycle arrest in human Huh-7 cells assessed as accumulation of cells at S phase 80 nM measured after 24 hrs by flow cytometric assay (reference value: 23.33%); type: functional
SK-HEP1 [7] = assay: Induction of cell cycle arrest in human SK-HEP1 cells assessed as accumulation of cells at G1 phase 80 nM measured after 24 hrs by flow cytometric assay (reference value: 47.55%); type: functional
SK-HEP1 [8] = assay: Induction of cell cycle arrest in human SK-HEP1 cells assessed as accumulation of cells at G2 phase 80 nM measured after 24 hrs by flow cytometric assay (reference value: 22.41%); type: functional
SK-HEP1 [9] = assay: Induction of cell cycle arrest in human SK-HEP1 cells assessed as accumulation of cells at S phase 80 nM measured after 24 hrs by flow cytometric assay (reference value: 30.04%); type: functional
Huh-7 [10] = assay: Induction of apoptosis in human Huh-7 cells assessed as viable cells at 80 nM measured after 24 hrs by Annexin-V-FITC/PI analysis (reference value: 97.46%); type: functional; details: read-out: Activity
Huh-7 [11] = assay: Induction of apoptosis in human Huh-7 cells assessed as early apoptotic cells at 80 nM measured after 24 hrs by Annexin-V-FITC/PI analysis (reference value: 1.04%); type: functional
Huh-7 [12] = assay: Induction of apoptosis in human Huh-7 cells assessed as late apoptotic cells at 80 nM measured after 24 hrs by Annexin-V-FITC/PI analysis (reference value: 1.23%); type: functional
Huh-7 [13] = assay: Induction of apoptosis in human Huh-7 cells assessed as necrotic cells at 80 nM measured after 24 hrs by Annexin-V-FITC/PI analysis (reference value: 0.27%); type: functional
SK-HEP1 [14] = assay: Induction of apoptosis in human SK-HEP1 cells assessed as viable cells at 80 nM measured after 24 hrs by Annexin-V-FITC/PI analysis (reference value: 97.20%); type: functional; details: read-out: Activity
SK-HEP1 [15] = assay: Induction of apoptosis in human SK-HEP1 cells assessed as early apoptotic cells at 80 nM measured after 24 hrs by Annexin-V-FITC/PI analysis (reference value: 1.45%); type: functional
SK-HEP1 [16] = assay: Induction of apoptosis in human SK-HEP1 cells assessed as late apoptotic cells at 80 nM measured after 24 hrs by Annexin-V-FITC/PI analysis (reference value: 0.64%); type: functional
SK-HEP1 [17] = assay: Induction of apoptosis in human SK-HEP1 cells assessed as necrotic cells at 80 nM measured after 24 hrs by Annexin-V-FITC/PI analysis (reference value: 0.70%); type: functional
Huh-7 [18] = assay: Induction of apoptosis in human Huh-7 cells assessed as loss of mitochondrial membrane potential by measuring JC-1 stained cells at 80 nM measured after 24 hrs by JC-1 staining based flow cytometry (reference value: 2.27%); type: functional
SK-HEP1 [19] = assay: Induction of apoptosis in human SK-HEP1 cells assessed as loss of mitochondrial membrane potential by measuring JC-1 stained cells at 80 nM measured after 24 hrs by JC-1 staining based flow cytometry (reference value: 0.49%); type: functional
Huh-7 [20] = assay: Induction of apoptosis in human Huh-7 cells assessed as ROS generation by measuring DCFH2-DA stained cells at 80 nM measured after 24 hrs […] (reference value: 0.45%); type: functional
SK-HEP1 [21] = assay: Induction of apoptosis in human SK-HEP1 cells assessed as ROS generation by measuring DCFH2-DA stained cells at 80 nM measured after 24 hrs […] (reference value: 0.14%); type: functional

With CC(=O)Oc1ccc2[nH]c3c(c2c1)CCN1C(=O)c2cc(F)cc(F)c2N(c2cccc(F)c2)C31 (stereo unspecified) as the molecule, how does the IC50 (Huh-7 [1]) read?
Its IC50 is 40 nM.

What about the solubility thermodynamic at 72 h [2] of the same molecule?
The solubility thermodynamic at 72 h was 2.4 µg/mL (≈ 5.03 µM).

What about the inhibition in vivo at 10 mg/kg (Huh-7 [3]) of the same molecule?
Its inhibition in vivo at 10 mg/kg is 40%.

What about the Activity (Huh-7 [4]) of the same molecule?
The Activity was 18.15%.

And the Activity (Huh-7 [5])?
The Activity was 70.08%.

And the Activity (Huh-7 [6])?
The Activity was 11.77%.

And the Activity (SK-HEP1 [7])?
Its Activity is 11.73%.

And the Activity (SK-HEP1 [8])?
The Activity was 64.96%.

And the Activity (SK-HEP1 [9])?
Its Activity is 23.31%.

And the viability at 0.08 µM (Huh-7 [10])?
The viability at 0.08 µM was 82.5%.

And the Activity (Huh-7 [11])?
The Activity was 6.38%.

And the Activity (Huh-7 [12])?
The Activity was 10.32%.

And the Activity (Huh-7 [13])?
Its Activity is 0.83%.

And the viability at 0.08 µM (SK-HEP1 [14])?
The viability at 0.08 µM was 68.1%.

And the Activity (SK-HEP1 [15])?
Its Activity is 21.32%.

And the Activity (SK-HEP1 [16])?
Its Activity is 9.72%.

And the Activity (SK-HEP1 [17])?
The Activity was 0.85%.

And the Activity (Huh-7 [18])?
Its Activity is 12.03%.

And the Activity (SK-HEP1 [19])?
Its Activity is 12.96%.

And the Activity (Huh-7 [20])?
Its Activity is 17.42%.

What about the Activity (SK-HEP1 [21]) of the same molecule?
The Activity was 57.06%.

— ChEMBL document CHEMBL6071160, “Identification of a novel 10-hydroxyevodiamine prodrug as a potent topoisomerase inhibitor with improved aqueous solubility for treatment of hepatocellular carcinoma” (Eur J Med Chem, 2024)
